Measured values taken from ChEMBL document CHEMBL4130562, “Design, Synthesis, and Antibacterial Evaluation of Oxazolidinones with Fused Heterocyclic C-Ring Substructure” (ACS Med Chem Lett, 2017).
≈ marks a conversion by molar mass, not a printed value.

Key:
Format in all cases: functional
[1] = test system: Staphylococcus epidermidis; assay: Antibacterial activity against Staphylococcus epidermidis ATCC 14990 by microbroth dilution method
[2] = test system: Haemophilus influenzae; assay: Antibacterial activity against Haemophilus influenzae ATCC 49247 by microbroth dilution method
[3] = test system: Staphylococcus aureus; assay: Antibacterial activity against Staphylococcus aureus ATCC 6538P by microbroth dilution method
[4] = test system: Staphylococcus aureus; assay: Antibacterial activity against Staphylococcus aureus ATCC 33591 by microbroth dilution method
[5] = test system: Staphylococcus aureus; assay: Antibacterial activity against linezolid-resistant Staphylococcus aureus by microbroth dilution method
[6] = test system: Streptococcus pneumoniae; assay: Antibacterial activity against Streptococcus pneumoniae 55143 by microbroth dilution method
[7] = test system: Streptococcus pyogenes; assay: Antibacterial activity against Streptococcus pyogenes ATCC 19615 by microbroth dilution method
[8] = test system: Staphylococcus aureus; assay: Antibacterial activity against methicillin-resistant Staphylococcus aureus 1201984 by microbroth dilution method
[9] = test system: Staphylococcus aureus; assay: Antibacterial activity against Staphylococcus aureus ATCC 29213 by microbroth dilution method
[10] = test system: Enterococcus faecium; assay: Antibacterial activity against Enterococcus faecium 19434 by microbroth dilution method
[11] = test system: Enterococcus faecalis; assay: Antibacterial activity against Enterococcus faecalis ATCC 29212 by microbroth dilution method

| Compound | MIC [1] [µg/mL] | MIC [2] [µg/mL] | MIC [3] [µg/mL] | MIC [4] [µg/mL] | MIC [5] [µg/mL] | MIC [6] [µg/mL] | MIC [7] [µg/mL] | MIC [8] [µg/mL] | MIC [9] [µg/mL] | MIC [10] [µg/mL] | MIC [11] [µg/mL] |
| --- | --- | --- | --- | --- | --- | --- | --- | --- | --- | --- | --- |
| O=C1O[C@@H](CO)CN1c1ccc(-c2ccc3oc(=O)[nH]c3c2)c(F)c1 | < 0.06 | 4 (≈ 11.6 µM) | 0.25 (≈ 0.726 µM) | 32 (≈ 92.9 µM) | 4 (≈ 11.6 µM) | 0.125 (≈ 0.363 µM) | 0.125 (≈ 0.363 µM) | 32 (≈ 92.9 µM) | 1 (≈ 2.9 µM) | 0.25 (≈ 0.726 µM) | 0.5 (≈ 1.45 µM) |
| CN[C@H](CC(C)C)C(=O)N[C@H]1C(=O)N[C@@H](CC(N)=O)C(=O)N[C@H]2C(=O)N[C@H]3C(=O)N[C@H](C(=O)N[C@H](C(=O)O)c4cc(O)cc(O)c4-c4cc3ccc4O)[C@H](O)c3ccc(c(Cl)c3)Oc3cc2cc(c3O[C@@H]2O[C@H](CO)[C@@H](O)[C@H](O)[C@H]2O[C@H]2C[C@](C)(N)[C@H](O)[C@H](C)O2)Oc2ccc(cc2Cl)[C@H]1O [VANCOMYCIN] | – | – | – | – | – | 2 (≈ 1.38 µM) | 2 (≈ 1.38 µM) | – | – | – | 2 (≈ 1.38 µM) |
| O=C1COc2ccc(-c3ccc(N4C[C@H](CNC(=O)C5CC5)OC4=O)cc3F)cc2N1 | 0.25 (≈ 0.588 µM) | 1 (≈ 2.35 µM) | 0.25 (≈ 0.588 µM) | 1 (≈ 2.35 µM) | 4 (≈ 9.4 µM) | 0.5 (≈ 1.18 µM) | 0.5 (≈ 1.18 µM) | 1 (≈ 2.35 µM) | 1 (≈ 2.35 µM) | 0.125 (≈ 0.294 µM) | 0.25 (≈ 0.588 µM) |
| O=C1COc2cc(-c3ccc(N4C[C@H](CO)OC4=O)cc3F)ccc2N1 | 0.5 (≈ 1.4 µM) | 0.25 (≈ 0.698 µM) | 0.5 (≈ 1.4 µM) | 0.5 (≈ 1.4 µM) | 16 (≈ 44.7 µM) | 2 (≈ 5.58 µM) | 2 (≈ 5.58 µM) | 0.5 (≈ 1.4 µM) | 0.5 (≈ 1.4 µM) | 1 (≈ 2.79 µM) | 1 (≈ 2.79 µM) |
| C[C@H]1COc2c(N3CCN(C)CC3)c(F)cc3c(=O)c(C(=O)O)cn1c23.C[C@H]1COc2c(N3CCN(C)CC3)c(F)cc3c(=O)c(C(=O)O)cn1c23.O [LEVOFLOXACIN] | 0.5 | 0.06 | 0.125 | 0.25 | > 32 | 0.125 | 0.06 | 16 | 0.125 | 4 | 0.25 |
| CCC(=O)NC[C@H]1CN(c2ccc(-c3ccc4c(c3)NC(=O)CO4)c(F)c2)C(=O)O1 | 0.125 (≈ 0.302 µM) | 0.25 (≈ 0.605 µM) | 0.125 (≈ 0.302 µM) | 0.25 (≈ 0.605 µM) | 1 (≈ 2.42 µM) | 0.5 (≈ 1.21 µM) | 0.25 (≈ 0.605 µM) | 0.5 (≈ 1.21 µM) | 0.25 (≈ 0.605 µM) | 0.06 (≈ 0.145 µM) | 0.25 (≈ 0.605 µM) |
| COC(=O)NC[C@H]1CN(c2ccc(-c3ccc4c(c3)NC(=O)CO4)c(F)c2)C(=O)O1 | 0.06 (≈ 0.144 µM) | 0.125 (≈ 0.301 µM) | 0.06 (≈ 0.144 µM) | 0.125 (≈ 0.301 µM) | 0.5 (≈ 1.2 µM) | 0.06 (≈ 0.144 µM) | 0.06 (≈ 0.144 µM) | 0.06 (≈ 0.144 µM) | 0.125 (≈ 0.301 µM) | 0.06 (≈ 0.144 µM) | 0.06 (≈ 0.144 µM) |
| CC1(C)Oc2ccc(-c3ccc(N4C[C@H](CO)OC4=O)cc3F)cc2NC1=O | < 0.06 | 0.125 (≈ 0.324 µM) | 0.125 (≈ 0.324 µM) | 1 (≈ 2.59 µM) | 16 (≈ 41.4 µM) | 0.25 (≈ 0.647 µM) | 0.25 (≈ 0.647 µM) | 0.25 (≈ 0.647 µM) | 0.25 (≈ 0.647 µM) | 0.25 (≈ 0.647 µM) | 0.5 (≈ 1.29 µM) |
| O=C1O[C@@H](CO)CN1c1ccc(-c2cnc3ccc(=O)[nH]c3c2)c(F)c1 | 0.25 (≈ 0.704 µM) | 0.5 (≈ 1.41 µM) | 0.25 (≈ 0.704 µM) | 0.25 (≈ 0.704 µM) | 8 (≈ 22.5 µM) | 0.25 (≈ 0.704 µM) | 0.25 (≈ 0.704 µM) | 16 (≈ 45 µM) | 0.5 (≈ 1.41 µM) | 0.125 (≈ 0.352 µM) | 0.5 (≈ 1.41 µM) |
| Cc1nc2ccc(-c3ccc(N4C[C@H](CO)OC4=O)cc3F)cc2c(=O)[nH]1 | 0.125 (≈ 0.338 µM) | 0.5 (≈ 1.35 µM) | 0.125 (≈ 0.338 µM) | 0.5 (≈ 1.35 µM) | 2 (≈ 5.41 µM) | 0.25 (≈ 0.677 µM) | 0.25 (≈ 0.677 µM) | 0.25 (≈ 0.677 µM) | 0.25 (≈ 0.677 µM) | 0.25 (≈ 0.677 µM) | 0.5 (≈ 1.35 µM) |
| CC(=S)NC[C@H]1CN(c2ccc(-c3ccc4c(c3)NC(=O)CO4)c(F)c2)C(=O)O1 | 0.06 (≈ 0.144 µM) | 0.125 (≈ 0.301 µM) | 0.06 (≈ 0.144 µM) | 0.125 (≈ 0.301 µM) | 0.125 (≈ 0.301 µM) | 0.06 (≈ 0.144 µM) | 0.06 (≈ 0.144 µM) | 0.06 (≈ 0.144 µM) | 0.06 (≈ 0.144 µM) | 0.06 (≈ 0.144 µM) | 0.06 (≈ 0.144 µM) |
| Cl.N=C(N)NC[C@H]1CN(c2ccc(-c3ccc4c(c3)NC(=O)CO4)c(F)c2)C(=O)O1 | > 32 | > 32 | > 32 | > 32 | > 32 | > 32 | > 32 | > 32 | > 32 | > 32 | > 32 |
| O=C1COc2c(cccc2-c2ccc(N3C[C@H](CO)OC3=O)cc2F)N1 | 2 (≈ 5.58 µM) | 1 (≈ 2.79 µM) | 8 (≈ 22.3 µM) | 4 (≈ 11.2 µM) | > 32 | 8 (≈ 22.3 µM) | 8 (≈ 22.3 µM) | 8 (≈ 22.3 µM) | 2 (≈ 5.58 µM) | 32 (≈ 89.3 µM) | 16 (≈ 44.7 µM) |
| O=C1CCOc2ccc(-c3ccc(N4C[C@H](CO)OC4=O)cc3F)cc2N1 | 0.06 (≈ 0.161 µM) | 0.5 (≈ 1.34 µM) | 0.06 (≈ 0.161 µM) | 0.5 (≈ 1.34 µM) | 2 (≈ 5.37 µM) | 0.25 (≈ 0.671 µM) | 0.25 (≈ 0.671 µM) | 0.125 (≈ 0.336 µM) | 0.125 (≈ 0.336 µM) | 0.125 (≈ 0.336 µM) | 0.25 (≈ 0.671 µM) |
| CS(=O)(=O)NC[C@H]1CN(c2ccc(-c3ccc4c(c3)NC(=O)CO4)c(F)c2)C(=O)O1 | 0.5 (≈ 1.15 µM) | 0.5 (≈ 1.15 µM) | 0.25 (≈ 0.574 µM) | 1 (≈ 2.3 µM) | 8 (≈ 18.4 µM) | 0.25 (≈ 0.574 µM) | 0.25 (≈ 0.574 µM) | 1 (≈ 2.3 µM) | 8 (≈ 18.4 µM) | 0.125 (≈ 0.287 µM) | 0.25 (≈ 0.574 µM) |
| O=C1NCCOc2ccc(-c3ccc(N4C[C@H](CO)OC4=O)cc3F)cc21 | 0.25 (≈ 0.671 µM) | 1 (≈ 2.69 µM) | 0.25 (≈ 0.671 µM) | 1 (≈ 2.69 µM) | 4 (≈ 10.7 µM) | 0.5 (≈ 1.34 µM) | 0.5 (≈ 1.34 µM) | 0.5 (≈ 1.34 µM) | 0.5 (≈ 1.34 µM) | 0.5 (≈ 1.34 µM) | 0.5 (≈ 1.34 µM) |
| CC(=O)NC[C@H]1CN(c2ccc(N3CCOCC3)c(F)c2)C(=O)O1 [LINEZOLID] | – | 4 (≈ 11.9 µM) | 1 (≈ 2.96 µM) | 1 (≈ 2.96 µM) | 16 (≈ 47.4 µM) | – | 0.5 (≈ 1.48 µM) | 1 (≈ 2.96 µM) | – | 2 (≈ 5.93 µM) | – |
| O=C(CO)NC[C@H]1CN(c2ccc(-c3ccc4c(c3)NC(=O)CO4)c(F)c2)C(=O)O1 | 0.25 (≈ 0.602 µM) | 0.5 (≈ 1.2 µM) | 0.25 (≈ 0.602 µM) | 1 (≈ 2.41 µM) | 4 (≈ 9.63 µM) | 0.125 (≈ 0.301 µM) | 0.125 (≈ 0.301 µM) | 1 (≈ 2.41 µM) | 1 (≈ 2.41 µM) | 0.06 (≈ 0.144 µM) | 0.06 (≈ 0.144 µM) |
| O=C1O[C@@H](CO)CN1c1ccc(-c2ccc3c(c2)OCCO3)c(F)c1 | 0.06 (≈ 0.174 µM) | 8 (≈ 23.2 µM) | 1 (≈ 2.9 µM) | 32 (≈ 92.7 µM) | > 32 | 0.5 (≈ 1.45 µM) | 0.5 (≈ 1.45 µM) | 32 (≈ 92.7 µM) | 4 (≈ 11.6 µM) | 2 (≈ 5.79 µM) | 4 (≈ 11.6 µM) |
| O=C1Cc2ccc(-c3ccc(N4C[C@H](CO)OC4=O)cc3F)cc2N1 | < 0.06 | 2 (≈ 5.84 µM) | 0.25 (≈ 0.73 µM) | 32 (≈ 93.5 µM) | 4 (≈ 11.7 µM) | 0.125 (≈ 0.365 µM) | 0.125 (≈ 0.365 µM) | 32 (≈ 93.5 µM) | 1 (≈ 2.92 µM) | 0.25 (≈ 0.73 µM) | 0.25 (≈ 0.73 µM) |
